Assay type in all cases: cell-based, Helicobacter pylori
Assay [1] deals with H. pylori. Put plainly: Anti H. pylori screening by disc diffusion susceptibility assay. To be noted: 100 and 200 mg/disc (so in the source), 72 h. Put shortly:
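Clinical strains HP001, HP002 and ATCC 700392, 43504, 49503 (10^8 CFU/mL) spread on supplemented BHI agar; 5 mm discs loaded with 100 and 200 […] compound in ethanol or DMSO. Zones read after 72 h microaerophilic growth at 37 °C; scored + (10-20 mm), ++ (20-30 mm), +++ (>30 mm), Nil <10 mm.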
A general note: A growth-free zone around the sample is the usual read-out of agar diffusion tests.

Assay [2] relates to H. pylori. The assay is described as above. To be noted: two doses, majority of the strains. Also on record: key: strongly active (3^+, diameter>30 mm); intermediate active (2^+, ˜20-30 mm diameter); moderately active (1^+, ˜10-20 mm diameter); not active (<10 mm diameter). The protocol:
(§1) The discs were impregnated with […] of each of the compounds, dissolved either in ethanol or DMSO, and the zone of inhibition was measured after 72 h of growth under microaerophilic conditions at 37° C. Inhibition zone diameter ranging 10-20 mm was given a score of ^+, 20-30 mm as ^++ and that of >30 mm as ^+++, as obtained employing dose range of […]/disc. The detailed structural information of the molecules is provided under ‘Description of the Compounds’.
(§2) Methods and protocols for the determination of inhibition zone diameter are as stated under Experiment 1, and that of MIC values by microbroth dilution assay as in Experiment 3. ‘Nil’ means zone of inhibition below 10 mm.
(§3) The anti H. pylori activity of all 16 flavonoid molecules, 2 naturally isolated and 14 synthetic derivatives, was screened by disc diffusion sensitivity assay employing 2 clinical strains HP001 and HP002, and three standard strains ATCC® 700392, 43504 and 49503. A 0.5 mL inoculum (10^8 CFU/mL) for each bacterial strain tested was flooded on freshly prepared Brain Heart Infusion (BHI) agar plates supplemented with 7% FCS, 0.5% IsoVitalex and 0.0025% DENT® and the discs (5 mm diameter) containing different compounds or antibiotics (dissolved either in ethanol or DMSO) were placed on the agar surface. After incubation for 3 days in a microaerophilic atmosphere at 37° C., the diameter of the zone of inhibition was measured (Glupczynsky, 1996; McNulty et al., 2002).

The subject of assay [3] is H. pylori. The assay is described as follows: Anti H. pylori spectrum (MIC) by agar dilution method. To be noted: for MIC50: MIC against 50% of the strains of the panel; for MIC Range: panel of 6 clinical isolates and 4 standard strains. In a few lines:
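Agar dilution per CLSI against six clinical isolates and four standard strains on BHI agar with 7% FCS, 0.5% IsoVitalex and DENT. Inoculum ~10^8 CFU/mL; 2-fold compound dilutions from 1.56-100; 72 h microaerophilic at 37 °C. MIC read visually as no growth, in duplicate; MIC50 covers 50% of strains.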

The subject of assay [4] is H. pylori. The assay is described as follows: Anti H. pylori screening by disc diffusion susceptibility assay. Also on record: key: strongly active (diameter>30 mm) and were given a score of 3^+; intermediate active (^˜20-30 mm diameter) and were given a score of 2^+; moderately active (^˜10-20 min diameter) and were given a score of 1^+; not active (>10 mm diameter). To be noted: 100 and 200 μg/disc, majority of the strains. The protocol:
as §1, §2, §3

For `O=c1cc(-c2ccccc2)oc2cc(O)cc(O)c12` [Chrysin, 5,7-Dihydroxy-2-phenyl-chromen-4-one, reference compound], the “Inhibition zone diameter (score)” value in assay [1] (ATCC standard strain 43504), in assay [1] (ATCC standard strain 49503), in assay [1] (ATCC standard strain 700392), in assay [1] (clinical strain HP001) and in assay [1] (clinical strain HP002) was “Nil (‘Nil’ means zone of inhibition below 10 mm)” throughout. The “Activity class by inhibition zone diameter” value in assay [2] and in assay [4] was “not active” in each case. In addition, in assay [3], the MIC50 entry is on record as “much higher”. Moreover, the “MIC Range” value in assay [3] is “much higher”.

On to “4-methyl-benzoic acid 5-hydroxy-6-methoxy-4-oxo-2-phenyl-4-H-chromen-yl ester [ORPM-1]”, for which the “Inhibition zone diameter (score)” value is given as “Nil (‘Nil’ means zone of inhibition below 10 mm)” in assay [1] (ATCC standard strain 43504); “Nil (‘Nil’ means zone of inhibition below 10 mm)” in assay [1] (ATCC standard strain 49503); “Nil (‘Nil’ means zone of inhibition below 10 mm)” in assay [1] (ATCC standard strain 700392); “+ (Inhibition zone diameter ranging 10-20 mm was given a score of ^+)” in assay [1] (clinical strain HP001); “Nil (‘Nil’ means zone of inhibition below 10 mm)” in assay [1] (clinical strain HP002). The “Activity class by inhibition zone diameter” value in assay [2] and in assay [4] was “not active” in each case.

In the case of `CN(C)CCCCCCOc1cc(O)c2c(=O)cc(-c3ccccc3)oc2c1` [CHN-1, 7-(6-Dimethylamino-hexyloxy)-5-hydroxy-2-phenyl-chromen-4-one], the “Inhibition zone diameter (score)” value in assay [1] (ATCC standard strain 43504), in assay [1] (ATCC standard strain 49503), in assay [1] (ATCC standard strain 700392), in assay [1] (clinical strain HP001) and in assay [1] (clinical strain HP002) was “Nil (‘Nil’ means zone of inhibition below 10 mm)” in each case. Moreover, the “Activity class by inhibition zone diameter” value in assay [2] and in assay [4] was “not active” in each case.

For `O=c1cc(-c2ccccc2)oc2cc(OCCCN3CCOCC3)cc(O)c12` [CHM-2, 5-Hydroxy-7-(3-morpholin-4-yl-propoxy)-2-phenyl-chromen-4-one], the “Inhibition zone diameter (score)” value in assay [1] (ATCC standard strain 43504), in assay [1] (ATCC standard strain 49503), in assay [1] (ATCC standard strain 700392), in assay [1] (clinical strain HP001) and in assay [1] (clinical strain HP002) was “Nil (‘Nil’ means zone of inhibition below 10 mm)” each time. In addition, the “Activity class by inhibition zone diameter” value in assay [2] and in assay [4] was “not active” throughout.

For `COc1c(O)cc2oc(-c3ccccc3)cc(=O)c2c1O` [Oroxylin A, reference compound], the “Inhibition zone diameter (score)” value in assay [1] (ATCC standard strain 43504), in assay [1] (ATCC standard strain 49503), in assay [1] (ATCC standard strain 700392), in assay [1] (clinical strain HP001) and in assay [1] (clinical strain HP002) was “Nil (‘Nil’ means zone of inhibition below 10 mm)” each time. For the same compound, the “Activity class by inhibition zone diameter” value in assay [2] and in assay [4] was “not active” in each case. Further, the MIC50 entry in assay [3] was “much higher”. The “MIC Range” value in assay [3] is “much higher”.

These data come from patent US9642854B2, “Flavanoid compounds and process for preparation thereof” (Council of Scientific & Industrial Research, priority 2009, dated 2017).
